The text below walks through data of patent US8093028B2, “Engineered glycosyltransferases with expanded substrate specificity” (Wisconsin Alumni Research Foundation, priority 2007, dated 2012).

The target in this experiment is T1, WT OleD (Streptomyces antibioticus, UniProt Q53685, P55A/R82V/R83E/T84P).
T1 construct: made in house; host or cells: E. coli BL21(DE3)pLysS, plasmid pET28/OleD
The class given is biochemical. Particulars: named substrate varied, other substrate fixed at 5 mM. The protocol: Determination of kinetic parameters. Enzyme assays were carried out in a total volume of 100 μl 50 mM Tris-HCl (pH 8.0) containing 5 mM MgCl2, and typically 10-50 μg pure enzyme. Kinetic parameters kcat and Km were determined with both (FIG. 9: 1) and (FIG. 12: 5) as variable substrates. […] Each experiment was performed in triplicate. Aliquots ([…]) were removed between 0 and 30 min, at which time product formation was still linear with respect to time, and quenched with 100 μl of ice-cold MeOH, and centrifuged at 10,000 g for 10 min. Supernatants were analyzed by analytical reverse-phase HPLC as described above. The substrate (FIG. 9: 1) and the glucoside product (FIG. 9: 7) HPLC peak areas were integrated, and the product concentration calculated as a percent of the total peak area. Initial velocities were fitted to the Michaelis-Menten equation using Sigma Plot.

By Km is commonly meant the substrate concentration at which the rate is half of its maximum. The term kcat denotes the number of substrate molecules converted per active site and unit of time at saturation.

T1 sequence (Q53685 other isoform, or with tags, fused parts or gaps P55A/R82V/R83E/T84P): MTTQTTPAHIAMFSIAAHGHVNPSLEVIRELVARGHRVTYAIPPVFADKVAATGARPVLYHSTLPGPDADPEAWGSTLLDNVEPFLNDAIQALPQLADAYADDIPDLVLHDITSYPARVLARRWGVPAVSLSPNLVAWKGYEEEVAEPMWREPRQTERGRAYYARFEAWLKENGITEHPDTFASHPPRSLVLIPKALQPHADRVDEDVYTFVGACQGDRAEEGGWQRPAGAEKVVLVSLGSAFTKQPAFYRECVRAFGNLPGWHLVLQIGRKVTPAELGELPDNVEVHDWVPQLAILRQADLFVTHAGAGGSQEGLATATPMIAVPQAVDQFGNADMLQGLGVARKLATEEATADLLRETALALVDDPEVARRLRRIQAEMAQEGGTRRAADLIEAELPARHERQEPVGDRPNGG

Turning to `CC(C)=CCc1cc(C(=O)Nc2c(O)c3ccc(O)c(C)c3oc2=O)ccc1O` [novobiocic acid (29), novobiocic acid], the Km turned out to be 2000 µM and the catalytic constant (kcat) stood at 0.000683 s⁻¹.
